Drawing on ChEMBL document CHEMBL1147578, “Design, synthesis, and SAR of anthranilamide-based factor Xa inhibitors with improved functional activity” (Bioorg Med Chem Lett, 2004), this text covers IC50 for 12 molecules.

In test [1] the target is Vitamin K-dependent protein C (Homo sapiens, UniProt P04070). The test is described as follows: Inhibitory activity against activated protein C.
The target of a further test is Serine protease 1 (Homo sapiens, UniProt P07477). The test is described as follows: Inhibitory activity against trypsin.
The next test concerns the target Prothrombin (Homo sapiens, UniProt P00734). The test is described as follows: Inhibitory activity against thrombin.
The target of test [2] is Tissue-type plasminogen activator (Homo sapiens, UniProt P00750). The test is described as follows: Inhibitory activity against tissue type plasminogen activator.
The target of a further test is Plasminogen (Homo sapiens, UniProt P00747). The experiment in a line: Inhibitory activity against plasmin.
In the next test the target is Coagulation factor X (Homo sapiens, UniProt P00742). The experiment in a line: In vitro inhibitory activity against coagulation factor X.

pIC50: −log10 of the molar value.

Sequence of Vitamin K-dependent protein C (P04070 43-197 limits assumed): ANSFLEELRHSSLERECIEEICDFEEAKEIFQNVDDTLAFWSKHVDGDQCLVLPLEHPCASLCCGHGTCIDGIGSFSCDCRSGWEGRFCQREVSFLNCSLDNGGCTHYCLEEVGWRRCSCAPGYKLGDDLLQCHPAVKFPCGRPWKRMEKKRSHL
Sequence of Vitamin K-dependent protein C (P04070 212-461 limits assumed): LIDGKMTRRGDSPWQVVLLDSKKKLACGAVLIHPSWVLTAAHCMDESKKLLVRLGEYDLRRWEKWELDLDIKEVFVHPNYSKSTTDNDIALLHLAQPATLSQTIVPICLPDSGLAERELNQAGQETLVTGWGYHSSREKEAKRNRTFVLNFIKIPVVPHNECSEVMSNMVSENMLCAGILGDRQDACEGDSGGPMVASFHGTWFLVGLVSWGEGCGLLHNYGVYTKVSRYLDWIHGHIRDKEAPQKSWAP
Sequence of Serine protease 1 (P07477 whole entry): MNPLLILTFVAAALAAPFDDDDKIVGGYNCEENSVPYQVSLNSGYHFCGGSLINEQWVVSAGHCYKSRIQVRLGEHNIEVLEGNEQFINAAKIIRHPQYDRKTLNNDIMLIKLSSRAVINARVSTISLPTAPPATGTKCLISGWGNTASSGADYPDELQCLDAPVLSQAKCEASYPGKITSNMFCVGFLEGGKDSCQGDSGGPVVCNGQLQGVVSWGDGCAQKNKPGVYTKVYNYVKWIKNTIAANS
Sequence of Plasminogen (P00747 97-580 limits assumed): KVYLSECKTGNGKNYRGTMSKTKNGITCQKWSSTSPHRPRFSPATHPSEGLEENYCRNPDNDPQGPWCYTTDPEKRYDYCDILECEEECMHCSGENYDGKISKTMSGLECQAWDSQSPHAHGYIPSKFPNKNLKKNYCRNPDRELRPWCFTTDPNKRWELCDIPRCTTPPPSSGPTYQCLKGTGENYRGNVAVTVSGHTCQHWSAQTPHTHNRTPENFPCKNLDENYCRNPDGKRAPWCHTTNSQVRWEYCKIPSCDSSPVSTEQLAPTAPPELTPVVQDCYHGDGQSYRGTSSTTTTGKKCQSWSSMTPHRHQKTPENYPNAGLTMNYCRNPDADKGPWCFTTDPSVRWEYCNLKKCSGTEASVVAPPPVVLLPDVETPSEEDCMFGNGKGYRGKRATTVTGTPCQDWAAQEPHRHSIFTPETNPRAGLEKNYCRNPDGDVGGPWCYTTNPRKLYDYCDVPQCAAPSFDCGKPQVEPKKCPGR
Sequence of Plasminogen (P00747 581-810 limits assumed): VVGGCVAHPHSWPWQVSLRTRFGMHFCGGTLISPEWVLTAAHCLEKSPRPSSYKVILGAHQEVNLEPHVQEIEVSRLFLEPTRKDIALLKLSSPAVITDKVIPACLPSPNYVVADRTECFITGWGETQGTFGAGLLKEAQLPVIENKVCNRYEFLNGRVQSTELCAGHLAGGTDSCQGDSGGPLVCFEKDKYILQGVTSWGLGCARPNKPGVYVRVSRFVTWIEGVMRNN
Sequence of Coagulation factor X (P00742 41-179 limits assumed): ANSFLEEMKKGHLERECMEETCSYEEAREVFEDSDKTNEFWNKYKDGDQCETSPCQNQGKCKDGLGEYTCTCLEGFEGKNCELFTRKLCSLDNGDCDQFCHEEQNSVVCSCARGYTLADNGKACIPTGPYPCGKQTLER
Sequence of Coagulation factor X (P00742 235-488 limits assumed): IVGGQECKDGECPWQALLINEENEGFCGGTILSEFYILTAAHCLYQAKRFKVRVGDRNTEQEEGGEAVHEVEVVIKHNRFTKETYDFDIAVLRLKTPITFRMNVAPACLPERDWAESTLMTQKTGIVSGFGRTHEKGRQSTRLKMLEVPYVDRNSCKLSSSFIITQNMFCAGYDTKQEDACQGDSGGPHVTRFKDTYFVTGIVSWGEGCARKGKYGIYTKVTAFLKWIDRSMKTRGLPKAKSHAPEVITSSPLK
Sequence of Tissue-type plasminogen activator (P00750 whole entry): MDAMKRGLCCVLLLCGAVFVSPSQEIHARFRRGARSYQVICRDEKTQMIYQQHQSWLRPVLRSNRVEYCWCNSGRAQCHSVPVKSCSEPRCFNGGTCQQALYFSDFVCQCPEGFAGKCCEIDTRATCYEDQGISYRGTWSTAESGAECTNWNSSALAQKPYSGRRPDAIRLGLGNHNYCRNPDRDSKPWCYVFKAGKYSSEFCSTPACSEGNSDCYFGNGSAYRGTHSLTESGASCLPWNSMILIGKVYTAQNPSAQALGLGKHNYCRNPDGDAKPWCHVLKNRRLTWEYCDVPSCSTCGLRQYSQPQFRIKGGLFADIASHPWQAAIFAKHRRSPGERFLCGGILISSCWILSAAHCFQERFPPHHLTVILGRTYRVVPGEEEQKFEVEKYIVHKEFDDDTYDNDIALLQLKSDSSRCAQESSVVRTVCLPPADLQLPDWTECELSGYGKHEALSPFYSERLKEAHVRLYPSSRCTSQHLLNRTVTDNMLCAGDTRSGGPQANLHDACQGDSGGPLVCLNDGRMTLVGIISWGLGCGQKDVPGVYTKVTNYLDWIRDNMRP

One may read the pIC50 as the IC50 on a negative log10 scale, so that one unit is a factor of ten. Low readings indicate a high IC50, high ones a low IC50. With `CN(Cc1ccc(C(=O)Nc2ccc(Cl)cc2C(=O)Nc2ccc(Cl)cn2)cc1)C1=NCCO1`, the pIC50 in test [1] is less than 4.96; against Serine protease 1 it was less than 4.96; on Prothrombin, less than 4.96; in test [2], less than 4.96; against Plasminogen it was less than 4.96; against Coagulation factor X, 8.82.
Consider `CN1CCN(Cc2ccc(C(=O)Nc3ccc(Cl)cc3C(=O)Nc3ccc(Cl)cn3)cc2)CC1`, for which the negative-log IC50 (pIC50) in test [1] is less than 4.96; against Serine protease 1, less than 4.96; against Prothrombin, less than 4.96; in test [2], less than 4.96; against Plasminogen, less than 4.96; at Coagulation factor X it was 7.82.
`CN(C)CCN(C)Cc1ccc(C(=O)Nc2ccc(Cl)cc2C(=O)Nc2ccc(Cl)cn2)cc1`: the pIC50 in test [1] is less than 4.96; against Serine protease 1, less than 4.96; on Prothrombin, less than 4.96; in test [2] it was less than 4.96; on Plasminogen, less than 4.96; on Coagulation factor X it was 8.16.
In the case of `NC1CCN(Cc2ccc(C(=O)Nc3ccc(Cl)cc3C(=O)Nc3ccc(Cl)cn3)cc2)CC1`, the pIC50 was less than 4.96 in test [1]; less than 4.96 at Serine protease 1; less than 4.96 on Prothrombin; less than 4.96 in test [2]; less than 4.96 against Plasminogen; 7.82 against Coagulation factor X.
On to `O=C(Nc1ccc(Cl)cc1C(=O)Nc1ccc(Cl)cn1)c1ccc(CN2CCNC2=O)cc1`, for which the pIC50 in test [1] was less than 4.96; against Serine protease 1, less than 4.96; on Prothrombin, less than 4.96; in test [2] it was less than 4.96; against Plasminogen it was less than 4.96; against Coagulation factor X, 7.52.
`CCOC(=O)C1CCN(Cc2ccc(C(=O)Nc3ccc(Cl)cc3C(=O)Nc3ccc(Cl)cn3)cc2)CC1`: the pIC50 was less than 4.96 in test [1]; less than 4.96 against Serine protease 1; less than 4.96 against Prothrombin; less than 4.96 in test [2]; less than 4.96 at Plasminogen; 6.77 against Coagulation factor X.
Turning to `NC(=O)C1CCN(Cc2ccc(C(=O)Nc3ccc(Cl)cc3C(=O)Nc3ccc(Cl)cn3)cc2)CC1`, the pIC50 was less than 4.96 in test [1]; less than 4.96 at Serine protease 1; less than 4.96 against Prothrombin; less than 4.96 in test [2]; less than 4.96 against Plasminogen; 7.12 against Coagulation factor X.
In the case of `O=C(Nc1ccc(Cl)cc1C(=O)Nc1ccc(Cl)cn1)c1ccc(CN2CCC(O)CC2)cc1`, the pIC50 in test [1] was less than 4.96; against Serine protease 1, less than 4.96; against Prothrombin, less than 4.96; in test [2] it was less than 4.96; at Plasminogen, less than 4.96; against Coagulation factor X, 6.87.
Turning to `CN(CCN(C)C(=N)N)Cc1ccc(C(=O)Nc2ccc(Cl)cc2C(=O)Nc2ccc(Cl)cn2)cc1`, the pIC50 in test [1] is less than 4.96; on Serine protease 1, less than 4.96; against Prothrombin it was less than 4.96; in test [2], less than 4.96; on Plasminogen it was less than 4.96; against Coagulation factor X, 8.70.
As for `CC(=N)N(C)CCN(C)Cc1ccc(C(=O)Nc2ccc(Cl)cc2C(=O)Nc2ccc(Cl)cn2)cc1`, the pIC50 in test [1] was less than 4.96; on Serine protease 1, less than 4.96; at Prothrombin, less than 4.96; in test [2] it was less than 4.96; at Plasminogen, less than 4.96; at Coagulation factor X, 8.96.
In the case of `C[N+]1(Cc2ccc(C(=O)Nc3ccc(Cl)cc3C(=O)Nc3ccc(Cl)cn3)cc2)CCCC1`, the pIC50 in test [1] is less than 4.96; on Serine protease 1 it was less than 4.96; against Prothrombin, less than 4.96; in test [2], less than 4.96; against Plasminogen, less than 4.96; against Coagulation factor X, 8.64.
For `O=C(Nc1ccc(Cl)cc1C(=O)Nc1ccc(Cl)cn1)c1ccc(CN2CCC(C(=O)O)CC2)cc1`, the pIC50 was less than 4.96 in test [1]; less than 4.96 against Serine protease 1; less than 4.96 on Prothrombin; less than 4.96 in test [2]; less than 4.96 at Plasminogen; 6.64 on Coagulation factor X.
